Drawing on patent US20120004228A1, “Bis Aromatic Compounds for Use as LTC4 Synthase Inhibitors” (BIOLIPOX AB, priority 2009, published 2012), this text covers IC50 for 33 molecules.

For orientation: IC50 means the concentration that gives 50% inhibition.

SMILES strings stand for the structures.

This test has as its target T1, Recombinant human LTC4 synthase (Homo sapiens, UniProt Q16873).
T1 construct: made in house; host or cells: Pichia pastoris ('Piccia pastoralis' [sic])
T1 sequence (Q16873 1-150): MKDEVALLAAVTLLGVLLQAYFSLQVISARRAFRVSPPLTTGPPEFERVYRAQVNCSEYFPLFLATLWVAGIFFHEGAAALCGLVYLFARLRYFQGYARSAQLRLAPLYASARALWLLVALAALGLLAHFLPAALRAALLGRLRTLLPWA
The test is described as follows: In vitro LTC4 synthase assay (LTA4 to LTC4, HTRF detection). It counts as biochemical. On the procedure: In the assay, LTC4 synthase catalyses the reaction where the substrate LTA4 is converted to LTC4. Recombinant human LTC4 synthase is expressed in Piccia pastoralis and the purified enzyme is dissolved in 25 mM tris-buffer pH 7.8 supplemented with 0.1 mM glutathione (GSH) and stored at −80° C. The assay is performed in phosphate buffered saline (PBS) pH 7.4 and 5 mM GSH in 384-well plates.
The following is added chronologically to each well:
1. 48 μL LTC4 synthase in PBS with 5 mM GSH. The total protein concentration in this solution is 0.5 μg/mL. 2. 1 μL inhibitor in DMSO (final concentration 10 μM). 3. Incubation of the plate at room temperature for 10 min. 4. 1 μL LTA4 (final concentration 2.5 μM). 5. Incubation of the plate at room temperature for 5 min. 6. 10 μL of the incubation mixture is analysed using homogenous time resolved fluorescent (HTRF) detection.
(TR-FRET usually uses a lanthanide donor and a delayed reading to cut background.)
On to `CN(c1ccc(Cl)cc1)c1ccc(C(=O)c2cc(C(=O)O)cc(N(CCCCO)c3cccnc3)c2)nc1` [9:39, 3-{5-[(4-Chlorophenyl)(methyl)amino]picolinoyl}-5-[(4-hydroxybutyl)(3-pyridyl)-amino]benzoic acid], for which the 50% inhibitory concentration (IC50) worked out at 126 nM.

`CN(c1ccc(Cl)cc1)c1ccc(C(=O)c2cc(C(=O)O)cc(N(CCCCO)c3ccccn3)c2)nc1` [9:40, 3-{5-[(4-Chlorophenyl)(methyl)amino]picolinoyl}-5-[(4-hydroxybutyl)(2-pyridyl)-amino]benzoic acid]: the IC50 was found to be 362 nM. With `CN(c1ccc(Cl)cc1)c1ccc(C(=O)c2cc(C(=O)O)cc(N(CC3CCCO3)c3ccccc3)c2)nc1` (stereo not drawn) [9:41, 3-{5-[(4-Chlorophenyl)(methyl)amino]picolinoyl}-5-{phenyl[(2-tetrahydrofuryl)-methyl]amino}benzoic acid] the figure was 164 nM; with `CN(c1ccc(Cl)cc1)c1ccc(C(=O)c2cc(C(=O)O)cc(N(C)c3cccnc3)c2)nc1` [9:42, 3-{5-[(4-Chlorophenyl)(methyl)amino]picolinoyl}-5-[methyl(3-pyridyl)amino]-benzoic acid], 1550 nM; with `CC(=O)N(c1cc(C(=O)O)cc(C(=O)c2ccc(N(C)c3ccc(Cl)cc3)cn2)c1)C1CCCCC1` [9:43, 3-{5-[(4-Chlorophenyl)(methyl)amino]picolinoyl}-5-(N-cyclohexylacetamido)-benzoic acid], 1820 nM. Consider `CC(=O)N(c1cc(C(=O)O)cc(C(=O)c2ccc(N(C)c3ccc(Cl)cc3)cn2)c1)C1CCOCC1` [9:44, 3-{5-[(4-Chlorophenyl)(methyl)amino]picolinoyl}-5-[N-(4-tetrahydropyranyl)-acetamido]benzoic acid], for which the IC50 came to 2550 nM. In the case of `CN(c1ccc(Cl)cc1)c1ccc(C(=O)c2cc(C(=O)O)cc(N(CCCCO)c3ccccc3)c2)nc1` [9:45, 3-{5-[(4-Chlorophenyl)(methyl)amino]picolinoyl}-5-[(4-hydroxybutyl)(phenyl)-amino]benzoic acid] it was 25 nM; in that of `CN(c1ccc(Cl)cc1)c1ccc(C(=O)c2cc(C(=O)O)cc(N(CCC3OCCO3)c3ccccc3)c2)nc1` [9:46, 3-{[2-(1,3-Dioxolan-2-yl)ethyl](phenyl)amino}-5-{5-[(4-chlorophenyl)(methyl)-amino]picolinoyl}benzoic acid], 122 nM. In the case of `CCOCCN(c1ccccc1)c1cc(C(=O)O)cc(C(=O)c2ccc(N(C)c3ccc(Cl)cc3)cn2)c1` [9:47, 3-{5-[(4-Chlorophenyl)(methyl)amino]picolinoyl}-5-[(2-ethoxyethyl)(phenyl)-amino]benzoic acid] it was 60 nM. With `CN(c1ccc(Cl)cc1)c1ccc(C(=O)c2cc(Nc3ccccc3OC(F)(F)F)cc(C(=O)O)c2)cc1` [10:4, 3-{4-[(4-Chlorophenyl)(methyl)amino]benzoyl}-5-(2-(trifluoromethoxy)-phenylamino)benzoic acid] the figure was 206 nM. In the case of `CN(c1ccc(Cl)cc1)c1ccc(C(=O)c2cc(Nc3cc(F)ccc3F)cc(C(=O)O)c2)cc1` [10:5, 3-{4-[(4-Chlorophenyl)(methyl)amino]benzoyl}-5-(2,5-difluorophenylamino)-benzoic acid], the IC50 is 210 nM.

For `COc1ccc(Nc2cc(C(=O)O)cc(C(=O)c3ccc(N(C)c4ccc(Cl)cc4)cc3)c2)cc1OC` [10:7, 3-{4-[(4-Chlorophenyl)(methyl)amino]benzoyl}-5-(3,4-dimethoxyphenyl-amino)benzoic acid], the IC50 came to 483 nM. In the case of `CN(c1ccc(Cl)cc1)c1ccc(C(=O)c2cc(Nc3ccccc3)cc(C(=O)O)c2)cc1` [10:8, 3-{4-[(4-Chlorophenyl)(methyl)amino]benzoyl}-5-phenylamino-benzoic acid] it was 80 nM; in that of `CN(c1ccc(Cl)cc1)c1ccc(C(=O)c2cc(Nc3ccccc3F)cc(C(=O)O)c2)cc1` [10:9, 3-{4-[(4-Chlorophenyl)(methyl)amino]benzoyl}-5-(2-fluorophenylamino)-benzoic acid], 162 nM; in that of `CN(c1ccc(Cl)cc1)c1ccc(C(=O)c2cc(NCc3ccccc3)cc(C(=O)O)c2)cc1` [10:10, 3-Benzylamino-5-{4-[(4-chlorophenyl)(methyl)amino]benzoyl}benzoic acid], 360 nM.

As for `CN(c1ccc(Cl)cc1)c1ccc(C(=O)c2cc(Nc3ccc(C(F)(F)F)cc3Cl)cc(C(=O)O)c2)cc1` [10:11, 3-[2-Chloro-4-(trifluoromethyl)phenylamino]-5-{4-[(4-chlorophenyl)(methyl)-amino]benzoyl}benzoic acid], the IC50 came out at 125 nM. In the case of `CN(c1ccc(Cl)cc1)c1ccc(C(=O)c2cc(Nc3ccccc3OC(F)F)cc(C(=O)O)c2)cc1` [10:12, 3-{4-[(4-Chlorophenyl)(methyl)amino]benzoyl}-5-(2-difluoromethoxyphenyl-amino)benzoic acid] it was 110 nM; in that of `CN(c1ccc(Cl)cc1)c1ccc(C(=O)c2cc(C(=O)O)cc(N(C)c3ccc(Cl)cc3Cl)c2)cc1` [10:13, 3-{4-[(4-Chlorophenyl)(methyl)amino]benzoyl}-5-[(2,4-dichlorophenyl)-(methyl)amino]benzoic acid], 40 nM. Regarding `CN(c1ccc(Cl)cc1)c1ccc(C(=O)c2cc(NCc3ccc(Cl)cc3Cl)cc(C(=O)O)c2)cc1` [10:14, 3-{4-[(4-Chlorophenyl)(methyl)amino]benzoyl}-5-(2,4-dichlorobenzylamino)-benzoic acid], the IC50 was 75 nM. As for `COc1ccccc1Nc1cc(C(=O)O)cc(C(=O)c2ccc(N(C)c3ccc(Cl)cc3)cc2)c1` [10:15, 3-{4-[(4-Chlorophenyl)(methyl)amino]benzoyl}-5-(2-methoxyphenylamino)-benzoic acid], the IC50 is 360 nM. Take `Cc1ccccc1CNc1cc(C(=O)O)cc(C(=O)c2ccc(N(C)c3ccc(Cl)cc3)cc2)c1` [10:16, 3-{4-[(4-Chlorophenyl)(methyl)amino]benzoyl}-5-(2-methylbenzylamino)-benzoic acid]: the IC50 is 284 nM. `CN(c1ccc(Cl)cc1)c1ccc(C(=O)c2cc(Nc3ccc(C(F)(F)F)cc3)cc(C(=O)O)c2)cc1` [10:17, 3-{4-[(4-Chlorophenyl)(methyl)amino]benzoyl}-5-(4-trifluoromethylphenyl-amino)benzoic acid]: the IC50 is 159 nM. In the case of `CN(c1ccc(Cl)cc1)c1ccc(C(=O)c2cc(Nc3ccc4c(c3)OC(F)(F)O4)cc(C(=O)O)c2)cc1` [10:18, 3-{4-[(4-Chlorophenyl)(methyl)amino]benzoyl}-5-[3,4-(difluoromethylene-dioxy)phenylamino]benzoic acid] it was 105 nM; in that of `CCN(c1ccccc1)c1cc(C(=O)O)cc(C(=O)c2ccc(N(C)c3ccc(Cl)cc3)cc2)c1` [10:19, 3-{4-[(4-Chlorophenyl)(methyl)amino]benzoyl}-5-[ethyl(phenyl)amino]benzoic acid], 33 nM.

Turning to `CN(c1ccc(Cl)cc1)c1ccc(C(=O)c2cc(NCc3ccc(Cl)cc3)cc(C(=O)O)c2)cc1` [10:20, 3-(4-Chlorobenzylamino)-5-{4-[(4-chlorophenyl)(methyl)amino]benzoyl}-benzoic acid], the IC50 came to 118 nM. In the case of `CN(c1ccc(Cl)cc1)c1ccc(C(=O)c2cc(NC3CCSCC3)cc(C(=O)O)c2)cc1` [10:21] it was 143 nM; in that of `CN(c1ccc(Cl)cc1)c1ccc(C(=O)c2cc(C(=O)O)cc(N(C)C3CCOCC3)c2)cc1` [10:22, 3-{4-[(4-Chlorophenyl)(methyl)amino]benzoyl}-5-[methyl(4-tetrahydropyranyl)-amino]benzoic acid], 252 nM. Turning to `CN(c1ccc(Cl)cc1)c1ccc(C(=O)c2cc(C(=O)O)cc(N(C)c3ccccc3F)c2)cc1` [10:24, 3-{4-[(4-Chlorophenyl)(methyl)amino]benzoyl}-5-[(2-fluorophenyl)(methyl)-amino]benzoic acid], the half-inhibitory concentration (IC50) was determined as 40 nM. With `COCCN(c1cc(C(=O)O)cc(C(=O)c2ccc(N(C)c3ccc(Cl)cc3)cc2)c1)c1ccccc1F` [10:25, 3-{4-[(4-Chlorophenyl)(methyl)amino]benzoyl}-5-[(2-fluorophenyl)(2-methoxy-ethyl)amino]benzoic acid], the IC50 was 76 nM. In the case of `COCCN(c1ccccc1)c1cc(C(=O)O)cc(C(=O)c2ccc(N(C)c3ccc(Cl)cc3)cc2)c1` [10:26, 3-{4-[(4-Chlorophenyl)(methyl)amino]benzoyl}-5-[(2-methoxyethyl)(phenyl)-amino]benzoic acid] it was 74 nM.

In the case of `CN(c1ccc(Cl)cc1)c1ccc(C(=O)c2cc(C(=O)O)cc(N(CC3(C)COC3)c3ccccc3)c2)cc1` [10:27, 3-{4-[(4-Chlorophenyl)(methyl)amino]benzoyl}-5-{[(3-methyloxetan-3-yl)-methyl](phenyl)amino}benzoic acid], the 50% inhibitory concentration (IC50) turned out to be 133 nM. With `CN(c1ccc(Cl)cc1)c1ccc(C(=O)c2cc(C(=O)O)cc(N(CC3(C)COC3)c3ccccc3F)c2)cc1` [10:28, 3-{4-[(4-Chlorophenyl)(methyl)amino]benzoyl}-5-{(2-fluorophenyl)[(3-methyl-oxetan-3-yl)methyl]amino}benzoic acid] the figure was 68 nM; with `CN(c1ccc(Cl)cc1)c1ccc(C(=O)c2cc(C(=O)O)cc(N(CC3OCCO3)c3ccccc3)c2)cc1` [10:29, 3-{[(1,3-Dioxolan-2-yl)methyl](phenyl)amino}-5-{4-[(4-chlorophenyl)(methyl)-amino]benzoyl}benzoic acid], 40 nM.
